{
  "source": "patent US20250313642A1",
  "about": "“METHODS OF TREATING ACUTE AND CHRONIC GRAFT VERSUS HOST DISEASE” (Forte Subsidiary, Inc., priority 2022, published 2025)",
  "key": {"[1]": {"system": "xenograft GvHD mouse model (NCG-hIL-15 mice transplanted with human PBMCs)", "assay": "Xenograft acute GvHD mouse model, single vs combination therapy, survival", "type": "in vivo", "settings": "Day 18; treatment D5-D18; ruxolitinib 60 mpk PO twice-daily; Antibody 1 75 mpk IP once-daily; n=10", "description": "A xenograft GvHD mouse model was utilized to study human T and NK cell-mediated aGvHD and the therapeutic effects of anti-CD122 antibody treatment in single or combination therapy approaches. Female NCG-hIL-15 mice were irradiated at a dosage of 100 cGy on Day 1 of the protocol and human peripheral blood mononuclear cells (PBMCs) were transplanted via injection at a dosage of 1×10^7 cells/200 μL/mice via IV administration into the irradiated mice according to the same xenograft GvHD mouse model design as in Example 4.\nTreatment according to 3 different grouping of animals was begun on Day 5 following transplant, as shown in the study design of FIG. 4. Groups of 10 mice were used for each test category. A single treatment group, Group #1, (n=10) received ruxolitinib (at a dosage of 60 mpk) twice-daily by oral administration (PO) beginning on Day 5 and ending on Day 18. Days of treatment were D5, D6, D7, D8, D9, D10, D11, D12, D13, D14, D15, D16, D17, and D18. A combination therapy group. Group #2. (n=10) received ruxolitinib (at a dosage of 60 mpk) twice-daily by oral administration beginning on Day 5 and ending on Day 18. […]\nDay 18 was the end of study day for all treatment groups. Animals from all treatment groups were assessed daily beginning on Day 1 and ending on Day 18 for survival following transplant. […]"}, "[2]": {"system": "allogeneic model of chronic GvHD (BALB/c mice)", "assay": "Allogeneic chronic GvHD mouse model (B10.D2 donor into BALB/c host), GvHD score", "type": "in vivo", "settings": "Antibody 3 100 mpk IP Q.O.D., Ruxolitinib 60 mpk PO b.i.d.", "text": "An allogeneic model of chronic GvHD according to the animal model design of Ramos et al (Ramos T L et al. Delayed administration of ixazomib modifies the immune response and prevents chronic graft-versus-host disease. Bone Marrow Transplant. 2021 December;56(12):3049-3058) was investigated. In this model as shown in the study design of FIG. 6. B10.D2 mice serve as donor for bone marrow and splenocytes to be transplanted into irradiated BALB/c host mice. […] In this model of cGvHD, there is a low mortality rate extending past 150 days post-transplant and cGvHD symptoms can typically appear starting at approximately 30 days post-transplant. Study design includes treatment start at Day 30 post-transplant and end of study is marked at Day 60 post-transplant. […] Two test treatment groups included Group 2) Antibody 3 anti-CD122 antibody therapy (100 mpk delivered IP every other day (Q.O.D.), and Group 3) ruxolitinib monotherapy (60 mpk PO b.i.d). One negative control group (Group 1) including vehicle (IP Q.O.D.)+vehicle (PO b.i.d.) was also tested. Phenotypic cGvHD score and survival were assessed starting at Day 30 and ending at Day 60 post-transplant.\n• BALB/c mice were randomized into treatment groups based on Day 1 bodyweight. • Female BALB/c mice were irradiated (5 Gy) and intravenously injected with B10.D2 donor cells on Day 1. • Cell injection volume was about 200 μL of Bone Marrow cells and splenocytes mixture as described below in treatments. Total cell volume injection=200 μL in PBS. • GvHD Scoring and body weight measurement assessed on Day 30, 33, 35, 37, 39, 41, 43, 45, 48, 51, 53, 56, 58, and 60. • Individual scores according to the grading system below of Grade 0, 1, or 2 were measured and documented on each assessed day for each criterion of body weight loss, activity, posture, fur texture, and skin integrity for each subject in each test group. Each criterion was then summed per subject to yield a total GvHD score by subject per assessed day (e.g., add score for bodyweight loss, activity, posture, fur texture, and skin integrity to yield total GvHD score). • Total GvHD scores per animal per day were then averaged per group to yield average GvHD score per test group and the standard error of the mean (SEM) for each group was determined."}},
  "data": [
    {"smiles": "N#CC[C@H](C1CCCC1)n1cc(-c2ncnc3[nH]ccc23)cn1", "note": "[ruxolitinib]", "values": [
      {"measurement": "survival rate at the end of the study", "setting": "[1]", "value": 30, "unit": "%"},
      {"measurement": "Average total GvHD score (mean)", "setting": "[2]; D 30 post-transplant", "value": 0.6},
      {"measurement": "Average total GvHD score (mean)", "setting": "[2]; D 33 post-transplant", "value": 0.6},
      {"measurement": "Average total GvHD score (mean)", "setting": "[2]; D 35 post-transplant", "value": 0.7},
      {"measurement": "Average total GvHD score (mean)", "setting": "[2]; D 39 post-transplant", "value": 1.2},
      {"measurement": "Average total GvHD score (mean)", "setting": "[2]; D 43 post-transplant", "value": 1.1},
      {"measurement": "Average total GvHD score (mean)", "setting": "[2]; D 45 post-transplant", "value": 1.2},
      {"measurement": "Average total GvHD score (mean)", "setting": "[2]; D 48 post-transplant", "value": 1.2},
      {"measurement": "Average total GvHD score (mean)", "setting": "[2]; D 51 post-transplant", "value": 1.2},
      {"measurement": "Average total GvHD score (mean)", "setting": "[2]; D 56 post-transplant", "value": 1.4},
      {"measurement": "Average total GvHD score (mean)", "setting": "[2]; D 60 post-transplant", "value": 1.7}
    ]}
  ]
}
